Test results published in patent publication US4525347A, “Antiinflammatory analgesic gelled ointment” (Kowa Company Limited, priority 1983, dated 1985).
Read-outs that look alike come from different tables or passages of the source.

Experiments:
[1] = Skin absorption of indomethacin suspended in conventional ointment bases; assay type: in vivo, human beings; details: topical
[2] = Effect of pH of the ointment on indomethacin (crystallization, decomposition); assay type: physicochemical
[3] = cited from earlier work
[4] = Effect of adjuvant on skin absorption of indomethacin; assay type: in vivo; details: combination with an adjuvant
[5] = Topical administration of indomethacin: activity and adverse reactions; assay type: in vivo; details: administered topically
[6] = in water and common media; cited from earlier work

Compound: COc1ccc2c(c1)c(CC(=O)O)c(C)n2C(=O)c1ccc(Cl)cc1 [indomethacin, Indomethacin]
- absorption by the skin [1]: remain unabsorbed by the skin of human beings
- decomposition of indomethacin ([2]; pH level above 7.5): decomposed indomethacin
- crystallization during the ointment preparation ([2]; pH level below 4.8): crystallization of indomethacin
- adverse effects ([3]; oral use): gastroenteric disorders
- adverse effects ([3]; suppository form, patient suffering from peptic ulcer): decreased appetite, nausea, vomiting, stomach ache, diarrhea and loose passage
- absorption of indomethacin by the skin [4]: substantially increased
- adverse reactions attributable to the administration of indomethacin [5]: completely eliminated
- antiinflammatory analgesic activity, topical vs internal use [5]: to the same extent as attained by its internal use
- solubility [6]: only slightly soluble
